Target: hOGG1 (Homo sapiens, UniProt O15527)
Experiment: Biochemical fluorescence assay to measure enzymatic activity of hOGG1 (OGG1/APEX IC50)
Design: Protein His-hOGG1 (12-323) was prepared; His (N); host or cells: E. coli
Conditions: 1 nM OGG1+2 nM APEX+6 nM dsDNA (8-oxo-dG substrate); pH 7.5; RT 40 min; read-out: OGG1/APEX IC50
Procedure: Biological Example 1: Biochemical Assay to Measure Enzymatic Activity of hOGG1 (OGG1/APEX IC50)
The reported fluorescence-based assay (Donley et al ACS Chem Biol 2015; 10 (10), 2334-2343) was modified to include hAPE1/APEX1 protein. The oligonucleotide substrate with 8-oxo-dG lesion at X was prepared (LGC Biosearch, Petaluma, CA):
Protein His-hOGG1 (12-323) was prepared by Chempartner Corporation via E. coliexpression and purification by Ni-NTA and S200 column to afford 95% purity by SDS-PAGE and SEC-HPLC analysis and hAPE1/APEX1 was purchased (SinoBiological). The assay was run in 384-well plates following the general procedure: (1) compound dilution; (2) addition of hOGG1/APEX1 to compound wells; (3) addition of DNA substrate to compound wells; (4) read Ex520/Em600 (TAMRA) fluorescence signal after 40 minutes; (5) calculate % inhibition/compound concentration; (6) calculate dose-response curve and IC50 value.
• (1) 20 mM of compound solution was prepared in DMSO; • (2) Compounds were diluted to 10 mM in DMSO in ECHO Source plate (Labcyte PP-0200), by mixing […] DMSO; • (3) 4× dilution of compounds, for 10 points, by mixing […] DMSO; and • (4) Dispensed 150 nL compounds to assay plate (Corning 3573) in column 3-22. Dispensed 150 nL DMSO to Min and Max control wells in column 1-2 and column 23-24.
• (1) Assay buffer was prepared (20 mM Tris pH 7.5, 100 mM KCl, 0.1% BSA, 0.01% Tween). • (2) […] buffer was added to Min control wells (Column 1-2). • (3) Enzyme was diluted to 2× with buffer (2 nM OGG1+4 nM APEX1). Dispensed […] (except Min control wells). Shake at 500 rpm at RT for 20 min. • (4) DNA substrate diluted to 2× with buffer (12 nM). Dispensed […]. Final concentration: 1 nM OGG1+2 nM APEX+6 nM dsDNA. Shake at RT for 40 min. • (5) Ex520/Em600 (TAMRA) was read.
• (1) Calculated respective mean of Max and Min control wells. • (2) Converted data to percentage inhibition.
Inhibition (%)=(Max mean−value)/(Max mean−Min mean)×100% • (3) Calculated sigmoidal curve (3-parameter) and IC50 (using GraphPad Prism software).

Sequence of hOGG1 (O15527 12-323): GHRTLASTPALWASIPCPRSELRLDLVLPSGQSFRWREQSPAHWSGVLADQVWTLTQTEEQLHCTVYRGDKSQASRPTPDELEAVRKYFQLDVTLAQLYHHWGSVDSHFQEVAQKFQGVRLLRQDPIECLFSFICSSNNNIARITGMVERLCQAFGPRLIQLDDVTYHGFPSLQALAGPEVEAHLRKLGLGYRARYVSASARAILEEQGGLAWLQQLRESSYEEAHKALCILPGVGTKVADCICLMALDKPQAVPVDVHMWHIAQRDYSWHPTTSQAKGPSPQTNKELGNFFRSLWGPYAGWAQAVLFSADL

IC50 [µM]	SMILES
< 0.1	COc1cc(NC(=O)[C@H]2CC[C@@H](N3Cc4c(C)cnc(C#N)c4NC3=O)CC2)ccc1C [Example 22, (1s,4s)-4-(8-Cyano-5-methyl-2-oxo-1,2-dihydropyrido[3,4-d]pyrimidin-3(4H)-yl)-N-(3-methoxy-4-methylphenyl)cyclohexanecarboxamide]
0.1 to 1	Cc1ccc(NC(=O)[C@H]2CC[C@@H](N3Cc4c(C)cccc4C3=O)CC2)cc1C#N [Example 254, (1s,4s)-N-(3-Cyano-4-methylphenyl)-4-(4-methyl-1-oxoisoindolin-2-yl)cyclohexanecarboxamide]
0.1 to 1	COc1cc(NC(=O)[C@H]2CC[C@@H](N3Cc4c(Br)cc(NCC(C)O)cc4C3=O)CC2)ccc1C (stereo partly drawn) [Example 179, (1s,4s)-4-(4-Bromo-6-(2-hydroxypropylamino)-1-oxoisoindolin-2-yl)-N-(3-methoxy-4-methylphenyl)cyclohexanecarboxamide]
0.1 to 1	Cc1cccc2c1CN([C@H]1CC[C@@H](C(=O)Nc3ccc4cc[nH]c4c3)CC1)C(=O)N2 [Example 113, (1s,4s)-N-(1H-indol-6-yl)-4-(5-methyl-2-oxo-1,2-dihydroquinazolin-3(4H)-yl)cyclohexanecarboxamide]
0.1 to 1	COc1ncc(NC(=O)[C@H]2CC[C@@H](N3Cc4c(C)cccc4C3=O)CC2)cc1C [Example 244, (1s,4s)-N-(6-Methoxy-5-methylpyridin-3-yl)-4-(4-methyl-1-oxoisoindolin-2-yl)cyclohexanecarboxamide]
< 0.1	COc1cc(NC(=O)[C@H]2CC[C@@H](N3Cc4c(C)cc(OCC5(F)CNC5)cc4C3=O)CC2)ccc1C [Example 141, (1s,4s)-4-(6-((3-Fluoroazetidin-3-yl)methoxy)-4-methyl-1-oxoisoindolin-2-yl)-N-(3-methoxy-4-methylphenyl)cyclohexanecarboxamide]
0.1 to 1	COc1cc(NC(=O)[C@H]2CC[C@@H](N3Cc4c(Br)cc([N+](=O)[O-])cc4C3=O)CC2)ccc1C [Example 163, (1s,4s)-4-(4-Bromo-6-nitro-1-oxoisoindolin-2-yl)-N-(3-methoxy-4-methylphenyl)cyclohexanecarboxamide]
> 10	COc1cc(NC(=O)[C@H]2CC[C@@H](N3Cc4cc(Br)ccc4C3=O)CC2)ccc1C [Example 170, (1s,4s)-4-(5-Bromo-1-oxoisoindolin-2-yl)-N-(3-methoxy-4-methylphenyl)cyclohexanecarboxamide]
0.1 to 1	COc1c(F)cc(NC(=O)[C@H]2CC[C@@H](N3Cc4c(C)cccc4C3=O)CC2)cc1F [Example 243, (1s,4s)-N-(3,5-Difluoro-4-methoxyphenyl)-4-(4-methyl-1-oxoisoindolin-2-yl)cyclohexanecarboxamide]
> 10	COc1cc(NC(=O)C2C[C@@H]3[C@H](C2)[C@H]3N2Cc3c(Br)cccc3C2=O)ccc1C (single isomer, unassigned) [Example 247]
> 10	Cc1cnc(NC(=O)[C@H]2CC[C@@H](N3Cc4c(C)cccc4C3=O)CC2)s1 [Example 235, (1s,4s)-4-(4-Methyl-1-oxoisoindolin-2-yl)-N-(5-methylthiazol-2-yl)cyclohexanecarboxamide]
1 to 10	Cc1ccc(NC(=O)[C@H]2CC[C@@H](N3Cc4c(C)cccc4C3=O)CC2)cc1CO [Example 126, (1s,4s)-N-(3-(Hydroxymethyl)-4-methylphenyl)-4-(4-methyl-1-oxoisoindolin-2-yl)cyclohexane-1-carboxamide]
1 to 10	COc1cc(NC(=O)[C@H]2CC[C@@H](N3Cc4c(OC)cccc4C3=O)CC2)ccc1C [Example 161, (1s,4s)-4-(4-Methoxy-1-oxoisoindolin-2-yl)-N-(3-methoxy-4-methylphenyl)cyclohexanecarboxamide]
1 to 10	COc1cc(NC(=O)[C@@H]2CC[C@@H](N3Cc4c(C)cc(Br)cc4NC3=O)C2)ccc1C [Example 36, (1R,3R)-3-(7-Bromo-5-methyl-2-oxo-1,2-dihydroquinazolin-3(4H)-yl)-N-(3-methoxy-4-methylphenyl)cyclopentanecarboxamide]
> 10	CCOC(=O)c1cccc2c1CN([C@H]1CC[C@@H](C(=O)Nc3ccc(C)c(OC)c3)CC1)C2=O [Example 169, Ethyl 2-((1s,4s)-4-(3-methoxy-4-methylphenylcarbamoyl)cyclohexyl)-1-oxoisoindoline-4-carboxylate]
< 0.1	COc1cc(NC(=O)[C@H]2CC[C@@H](N3Cc4c(C)ccc(OCCN(C)C)c4NC3=O)CC2)ccc1C [Example 21, (1s,4s)-4-(8-(2-(Dimethylamino)ethoxy)-5-methyl-2-oxo-1,2-dihydroquinazolin-3(4H)-yl)-N-(3-methoxy-4-methylphenyl)cyclohexanecarboxamide]
1 to 10	Cc1cccc2c1CN([C@H]1CC[C@@H](C(=O)Nc3ccc4oncc4c3)CC1)C(=O)N2 [Example 114, (1s,4s)-N-(benzo[d]isoxazol-5-yl)-4-(5-methyl-2-oxo-1,2-dihydroquinazolin-3(4H)-yl)cyclohexanecarboxamide]
< 0.1	COc1cc(NC(=O)[C@H]2CC[C@@H](N3Cc4c(C)ccc(CO)c4NC3=O)CC2)ccc1C [Example 54, (1s,4s)-4-(8-(Hydroxymethyl)-5-methyl-2-oxo-1,2-dihydroquinazolin-3(4H)-yl)-N-(3-methoxy-4-methylphenyl)cyclohexanecarboxamide]
1 to 10	COc1ccc(NC(=O)[C@]2(C)CC[C@@H](N3Cc4c(C)cccc4NC3=O)CC2)cc1Cl (single isomer, unassigned) [Example 104, (1r,4r)-N-(3-chloro-4-methoxyphenyl)-1-methyl-4-(5-methyl-2-oxo-1,2-dihydroquinazolin-3(4H)-yl)cyclohexanecarboxamide]
< 0.1	COc1cc(NC(=O)[C@H]2CC[C@@H](N3Cc4c(Br)cc(NC(=O)CCN(C)C)cc4C3=O)CC2)ccc1C [Example 204, (1s,4s)-4-(4-Bromo-6-(3-(dimethylamino)propanamido)-1-oxoisoindolin-2-yl)-N-(3-methoxy-4-methylphenyl)cyclohexanecarboxamide]
0.1 to 1	CNC(=O)c1cc(C)c2c(c1)C(=O)N([C@H]1CC[C@@H](C(=O)Nc3ccc(C)c(OC)c3)CC1)C2 [Example 212, 2-((1s,4s)-4-(3-Methoxy-4-methylphenylcarbamoyl)cyclohexyl)-N,7-dimethyl-3-oxoisoindoline-5-carboxamide]
0.1 to 1	Cc1cccc2c1CN([C@H]1CC[C@@H](C(=O)Nc3ccc(Cl)c(Cl)c3)CC1)C2=O [Example 237, (1s,4s)-N-(3,4-Dichlorophenyl)-4-(4-methyl-1-oxoisoindolin-2-yl)cyclohexanecarboxamide]
1 to 10	COc1ccc(NC(=O)[C@]2(C)CC[C@@H](N3Cc4c(C)cccc4NC3=O)CC2)cc1C (single isomer, unassigned) [Example 106, (1r,4r)-N-(4-methoxy-3-methylphenyl)-1-methyl-4-(5-methyl-2-oxo-1,2-dihydroquinazolin-3(4H)-yl)cyclohexanecarboxamide]
> 10	COc1cc(NC(=O)[C@H]2CC[C@@H](N3Cc4c(cccc4C(C)C)C3=O)CC2)ccc1C [Example 158, (1s,4s)-4-(4-Isopropyl-1-oxoisoindolin-2-yl)-N-(3-methoxy-4-methylphenyl)cyclohexanecarboxamide]
0.1 to 1	CCc1ccc(NC(=O)[C@H]2CC[C@@H](N3Cc4c(C)cccc4NC3=O)CC2)cc1C [Example 93, (1s,4s)-N-(4-ethyl-3-methylphenyl)-4-(5-methyl-2-oxo-1,2-dihydroquinazolin-3(4H)-yl)cyclohexanecarboxamide]
< 0.1	COc1cc(NC(=O)[C@H]2CC[C@@H](N3Cc4c(C)cc(NCC5(O)CNC5)cc4C3=O)CC2)ccc1C [Example 136, (1s,4s)-4-(6-(((3-hydroxyazetidin-3-yl)methyl)amino)-4-methyl-1-oxoisoindolin-2-yl)-N-(3-methoxy-4-methylphenyl)cyclohexanecarboxamide]
< 0.1	Cc1cc(NCCN(C)C)cc2c1CN([C@H]1CC[C@@H](C(=O)Nc3ccc(Cl)c(F)c3)CC1)C2=O [Example 264, (1s,4s)-N-(4-Chloro-3-fluorophenyl)-4-(6-(2-(dimethylamino)ethylamino)-4-methyl-1-oxoisoindolin-2-yl)cyclohexanecarboxamide]
